The subject of assay [1] is p40. The assay can be described thus: Inhibition of p40 mRNA expression by LPS-stimulated MonoMac6 cells (real-time PCR). The format is cell-based, human. As to conditions: 75 μM, 1 h preincubation, LPS 100 ng/ml for 4 h. How it is done: The capacity of benzydamine to inhibit the expression of p40 by lipopolysaccharide (LPS)-stimulated MonoMac6 cells was evaluated. The cells were placed in 96-well plates at a concentration of 50 000 cells/well. The compound was tested at the concentration of 75 μM and incubated for 1 hour. The cells were then stimulated with LPS (100 ng/ml) for 4 hours. The total RNA was extracted from the cell pellet using the RNeasy mini kit (Qiagen), reverse-transcribed with the TaqMan Reverse transcription reagents synthesis kit (Applied Biosystems) and the cDNA obtained was used for the real-time PCR reaction. The amplification was obtained in 96-well plates using the ABI Prism 7000 sequence detection system (Applied Biosystems), by applying the following temperature profile: 50° C. for 2 minutes, 95° C. for 10 minutes and 45 cycles at 95° C. for 15 seconds and 60° C. for 1 minute. For the amplification, a set of primers and probe specific for human p40 was used (Applied Biosystems, RefSeq NM_002187.2). A set of primers and probe for β-actin was used in separate wells as an internal control of the samples for the purposes of normalization. Once the reaction had taken place, the fluorescence data were analysed using the ABI Prism 7000 SDS software, by calculating the threshold cycle (Ct) for each sample and subsequently performing a relative quantification via the ΔΔCt method.

Assay [2] relates to TNF. As to conditions: mice; cited from earlier work.
The subject of assay [3] is TNF. The assay can be described thus: Inhibition of TNF production by anti-CD3 stimulated human PBMCs (Luminex). The format is cell-based. How it is done: The capacity of the compound to inhibit the expression of the protein TNF by anti-CD3 stimulated human PBMCs (peripheral blood mononuclear cells) was evaluated. The cells were placed in 96-well plates at a concentration of 2×10^5 cells/well. The compound was tested on a 6-point ½-log dose curve (in the range 0.3-100 μM) and incubated for 1 hour. The cells were then stimulated with anti-CD3 (4 μg/ml) for 48 hours. The amount of TNF produced was measured in the supernatants, suitably diluted with buffer, by using the Luminex 100 system.

In assay [4] the test system is p40. The experiment in a line: Inhibition of p40 protein production by anti-CD3 stimulated human PBMCs (Luminex). The format is cell-based. How it is done: The capacity of the compound to inhibit the production of the protein p40 by anti-CD3 stimulated human PBMCs (peripheral blood mononuclear cells) was evaluated. The cells were placed in 96-well plates at a concentration of 2×10^5 cells/well. The compound was tested on a 6-point ½-log dose curve (in the range 0.3-100 μM) and incubated for 1 hour. The cells were then stimulated with anti-CD3 (4 μg/ml) for 48 hours. The amount of p40 produced was measured in the supernatants, suitably diluted with buffer, by using the Luminex 100 system.

[5] abbreviates: 0 μM (so in the source), anti-CD3 4 μg/ml 48 h, human PBMCs.
Setting [6] is: PBMC, 1 μM, anti-CD3 4 μg/ml 48 h, human PBMCs.
Where [7] appears, read: PBMC, 3 μM, anti-CD3 4 μg/ml 48 h, human PBMCs.
[8] abbreviates: PBMC, 10 μM, anti-CD3 4 μg/ml 48 h, human PBMCs.
Where [9] appears, read: PBMC, 30 μM, anti-CD3 4 μg/ml 48 h, human PBMCs.
Setting [10] is: PBMC, 100 μM, anti-CD3 4 μg/ml 48 h, human PBMCs.
Setting [11] is: PBMC, anti-CD3 stimulated human PBMCs, 48 h.
Where [12] appears, read: dose curve 0.3-100 μM, human PBMCs.

The structures appear in SMILES notation. Values joined by “and” are separate entries in the source; they are usually repeats but may differ in a detail not shown here. Equal values may be shown once.

For the compound `CN(C)CCCOc1nn(Cc2ccccc2)c2ccccc12` [Benzydamine], the “% inhibition of LPS-induced p40 mRNA expression” value in assay [1] stood at 80%. Besides, the “dose required for a significant inhibiting effect on TNF production” value in assay [2] was 20 mg/kg and 40 mg/kg. The “% inhibition of TNF production” value in assay [3] (setting [5]) was found to be 7%. In addition, the inhibition at 1 µM in assay [3] (setting [6]) is 8%; in assay [4] (setting [6]), 23%. Also, the results for the inhibition at 3 µM in assay [3] (setting [7]) and in assay [4] (setting [7]) were 12% and 24%, respectively. The results for the inhibition at 10 µM in assay [3] (setting [8]) and in assay [4] (setting [8]) were 22% and 44%, respectively. Besides, the inhibition at 30 µM in assay [3] (setting [9]) is 44%; in assay [4] (setting [9]) it was 97%. The figures for the inhibition at 100 µM in assay [3] (setting [10]) and in assay [4] (setting [10]) were 70% and 99%, respectively. Also, the half-inhibitory concentration (IC50) in assay [3] (setting [11]) was found to be 43.1 µM; in assay [4] (setting [11]) it was 10.1 µM. In addition, in assay [3] (anti-CD3 stimulated human PBMCs), the “IC50 for TNF relative to IC50 for p40” value was “about 4 fold”. Moreover, the “inhibition of anti-CD3 induced TNF production, range over dose curve” value in assay [3] (setting [12]) is 8-70%. Moreover, in assay [4] (setting [5]), the “% inhibition of p40 production” value is recorded as 0%. Besides, in assay [4] (setting [12]), the “inhibition of anti-CD3 induced p40 production, range over dose curve” value is listed as 23-99%.

(Values after patent US20120302618A1, “USE OF BENZYDAMINE IN THE TREATMENT OF P40-DEPENDENT DISEASES” (AZIENDE CHIM. RIUN. ANG. FRANC. A.C.R.A.F. S.p.A., priority 2009, published 2012).)
